The supplement of paper PMC10949913

How the values were obtained:
Assay in all cases: area under concentration-response curve (viability) (AUC (a.u.)); higher = less active
Details in all cases: 48 h
CU-ACC1 = system: CU-ACC1
Outline: (§1)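 Three adrenocortical carcinoma cell lines in 1,536-well plates received 23 nL of each library compound at 11 concentrations and were read with CellTiter-Glo after 48 h, with 15 minutes at room temperature before measuring luminescence. Vehicle and empty-well controls served for per-plate normalisation. AC50 and area under the curve were extracted from fitted concentration-response curves, discarding all curve classes other than inhibitory or non-responding.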

CU-ACC2 = system: CU-ACC2
Outline: as §1

NCI-H295R = system: NCI-H295R
Outline: as §1

Structure (SMILES)	area under concentration-response curve (CU-ACC1)	area under concentration-response curve (CU-ACC2)	area under concentration-response curve (NCI-H295R)
NNc1nncc2ccccc12	525	568	534
[2H]c1nc(C)nc([2H])c1-c1cc(NC[C@@H](C)c2cccc3c(C(=O)NC)ccnc23)ncn1	531	629	585
Nc1n[nH]c2nnc(-c3c(-c4ccccc4)nn4ccccc34)cc12	489	595	515
C[C@]12CCC(=O)C(O)=C1CC[C@@H]1[C@@H]2CC[C@]2(C)C(=O)CC[C@@H]12	404	470	417
CC(C)OC1=C(F)C=C(C=C1)C2=N[N]([C@@H](C)C/3=C(C4=CC(=CC=C4)F)/C(=O)C5=CC(=CC=C5O3)F)C6=C2C(=NC=N6)N	516	641	547
O=C(O)c1ccccc1C(=O)Nc1ccc(-c2ccccc2)cc1	514	580	491
O=C1CCCC(=O)C1C(=O)c1ccc(C(F)(F)F)cc1[N+](=O)[O-]	565	576	545
Nc1ncnc2c1ncn2[C@@H]1O[C@H](CO)[C@@H](O)[C@H]1O	463	506	470
FC(F)(F)c1ccc(/C=C/c2nc(COc3ccc(CCCCn4ccnn4)cc3)co2)cc1	265	596	531
CCN(CC)CCCC(C)Nc1ccnc2cc(Cl)ccc12 (centres undefined)	464	638	583
CCOC(=O)c1c(C)n(C)c2ccc(O)cc12	536	593	520
CN1CC(=O)\N=C1\NC(=O)NC2=CC(=CC=C2)Cl	497	566	486
COC/1=C/[C@@H]2[C@@H]3CC4=C(C(=C(OC)C=C4)O)[C@]2(CCN3C)CC1=O	457	519	479
O=C1CC[C@@]2(O)[C@H]3Cc4ccc(O)c5c4[C@@]2(CCN3CC2CC2)[C@H]1O5	413	623	559
O=C(c1ccc(C(=O)N2CCC(N3CCCC3)CC2)c(Nc2ccccc2)c1)N1CCC(N2CCCC2)CC1	493	601	556
CCCC\1=C(/CNC(=O)C2=CC(=CC3=C2C=N[N]3C(C)C)C4=CC=C(N=C4)N5CCN(CC5)C(C)C)C(=O)NC(=C1)\C	379	485	472
CC[C@@H](Oc1cccc(CN(CCCOc2ccc(OC)cc2)c2nc3ccccc3o2)c1)C(=O)O	562	571	519
CC(C)n1cc(-c2ccc3c(c2)N(C)CC3)c2c(N[S+](=O)([O-])c3ccn(C)n3)ccnc21	516	638	568
CCN1C[C@]2(OC(=O)c3ccccc3NC(C)=O)CC[C@H](OC)[C@@]34[C@@H]2C[C@@H]([C@@H]13)[C@@]1(O)C[C@H](OC)[C@H]2C[C@@H]4[C@]1(O)[C@H]2OC	416	499	429
[O-]C(=O)C/1=N/C(=O)NC(=O)N1	418	608	551
NC/1=N/C(=O)C2=C([NH]C=C2CCC3=CC=C(C=C3)C(=O)N[C@@H](CCC(O)=O)C(O)=O)N1	523	590	537
COC1=CC=C(C=C1)/C2=C(O)/C(=O)C3=C(O)C=C(O)C(=C3O2)CC=C(C)C	415	388	416
COC/1=C(\CNC(=O)C2=C(C)[N]([C@H](C)C3CCN(CC3)CC(F)(F)F)C4=C2C=CC=C4)C(=O)N/C(=C1)C	453	556	470
Cc1ccc(C)c(OCCCC(C)(C)C(=O)O)c1	569	661	572

Structure (SMILES)	area under concentration-response curve (CU-ACC1)	area under concentration-response curve (CU-ACC2)	area under concentration-response curve (NCI-H295R)
O=C(O)CCCCN(CCc1ccccc1OCc1ccc(CCc2ccccc2)cc1)Cc1ccc(C(=O)O)cc1	471	561	495
CNCC(O)c1ccc(O)cc1 (centres undefined)	565	618	579
O=C(Nc1ccccc1)Nc1ccc(-c2ccc(C(=O)[C@@H]3CCC[C@H]3C(=O)O)cc2)cc1	481	472	441
CC(C)C[C@@H]1NC(=O)[C@@H](C(C)C)NC(=O)[C@@H]2CCCN2C(=O)[C@@H](CC(=O)O)NC(=O)[C@@H](Cc2c[nH]c3ccccc23)NC1=O	489	604	550
COc1cc2ncnc(Nc3cc(Br)c(O)c(Br)c3)c2cc1OC	523	650	581
C[C@]12CC[C@H]3[C@@H](CCC/4=C/C(=O)CC[C@]34C)[C@@H]1CC[C@@H]2OC(=O)CCC5CCCC5	581	618	569
CC(C(=O)O)c1ccc2c(c1)CC(=O)c1ccccc1S2 (centres undefined)	535	554	497
Cc1nc(C)c(CN2CCN(C(c3ccc(F)cc3)c3ccc(F)cc3)CC2)nc1C	481	563	471
CN1CCN(C(=O)c2ccc(-c3ccc4c(C=O)c(O)ccc4c3)s2)CC1	499	612	556
N#CC1(c2ccc(NC(=O)c3cccnc3NCc3ccncc3)cc2)CCCC1	547	531	545
Cn1cc(-c2ccc3nnc(Sc4ccc5ncccc5c4)n3n2)cn1	516	447	525
CC(S)C(=O)NCC(=O)O (centres undefined)	547	632	563
N[S+](=O)([O-])c1cc2c(cc1Cl)NC(C(Cl)Cl)N[S+]2(=O)[O-] (centres undefined)	477	591	536
Cc1cccc(-c2nn(C(=S)Nc3ccccc3)cc2-c2ccnc3ccccc23)n1	506	590	470
CN1C[C@@H]2c3ccccc3Oc3ccc(Cl)cc3[C@H]2C1	553	525	554
Cc1[nH]c(/C=C2\C(=O)Nc3ccc(F)cc32)c(C)c1C(=O)NC[C@H](O)CN1CCOCC1	525	601	539
NC(=O)NO	503	590	511
CN1C(=O)N[C@@H](Cc2c[nH]c3c(Cl)cccc23)C1=O	531	512	535
COc1nc(-c2ccc3c(c2)OCO3)n(-c2ccc(NC(=O)CSc3ccccc3)cc2)n1	408	611	573
COc1cc(SC)ccc1C(=O)N1CCC(Cc2ccccc2)CC1	522	501	538
NC12CC3CC(CC(C3)C1)C2	466	509	523
CC1=C(C)C=C(N[S+]([O-])(=O)C2=CC3=C(NC(C4C\C=C/C34)C5=CC=C(C=C5)C(O)=O)C=C2)C=C1 (centres undefined)	525	600	555
N#Cc1cccc(-c2c[nH]c3ncnc(N4CCOCC4)c23)c1	508	595	553
OC[C@H]1O[C@@H]2[C@@H](OC\3=N\C(=N)\C=C/[N@@]23)[C@@H]1O	488	504	472
